Experimental data published in article PMC5218480 (PLoS ONE, 2017).

Tested on: MV-4-11 cells
Experiment: Gene expression microarray analysis (Affymetrix PrimeView) and GSEA
Assay type: cell-based, human
Set-up: RFU PODN (11730768_x_at) / Fold change /veh PODN (11730768_x_at) / RFU LINC00158 (11744669_a_at) / Fold change /veh LINC00158 (11744669_a_at) / RFU DUSP10 (11751237_a_at) / Fold change /veh DUSP10 (11751237_a_at) / RFU ID3 (11757404_x_at) / Fold change /veh ID3 (11757404_x_at) / RFU PLEKHG5 (11737974_s_at) / Fold change /veh PLEKHG5 (11737974_s_at) / RFU LRRC4B (11730491_at) / Fold change /veh LRRC4B (11730491_at) / RFU GIMAP4 (11747438_a_at) / Fold change /veh GIMAP4 (11747438_a_at) / RFU KRT8 (11758183_x_at) / Fold change /veh KRT8 (11758183_x_at) / RFU CNN1 (11734310_a_at) / Fold change /veh CNN1 (11734310_a_at) / RFU VPS37D (11726825_at) / Fold change /veh VPS37D (11726825_at) / RFU C10orf10 (11716522_x_at) / Fold change /veh C10orf10 (11716522_x_at) / RFU KIR2DL2 /// KIR2DL4 /// KIR2DL5A /// KIR2DL5B /// KIR2DS1 /// KIR2DS2 /// KIR2DS3 /// KIR2DS4 /// KIR3DL3 /// KIR3DL3 /// KIR3DS1 (11738374_at) / Fold change /veh KIR2DL2 /// KIR2DL4 /// KIR2DL5A /// KIR2DL5B /// KIR2DS1 /// KIR2DS2 /// KIR2DS3 /// KIR2DS4 /// KIR3DL3 /// KIR3DL3 /// KIR3DS1 (11738374_at) / RFU C1QL1 (11718748_at) / Fold change /veh C1QL1 (11718748_at) / RFU TMPRSS4 (11747572_a_at) / Fold change /veh TMPRSS4 (11747572_a_at) / RFU HAMP (11756126_x_at) / Fold change /veh HAMP (11756126_x_at) / RFU RNFT2 (11725882_a_at) / Fold change /veh RNFT2 (11725882_a_at) / RFU NR4A2 (11747474_a_at) / Fold change /veh NR4A2 (11747474_a_at) / RFU ABCC12 (11746883_a_at) / Fold change /veh ABCC12 (11746883_a_at) / RFU TMEM136 (11760407_x_at) / Fold change /veh TMEM136 (11760407_x_at) / RFU CLDN22 /// WWC2 (11732394_at) / Fold change /veh CLDN22 /// WWC2 (11732394_at) / RFU HLA-DPB1 (11760878_x_at) / Fold change /veh HLA-DPB1 (11760878_x_at) / RFU SPINT1 (11716480_a_at) / Fold change /veh SPINT1 (11716480_a_at) / RFU GAP43 (11754022_s_at) / Fold change /veh GAP43 (11754022_s_at) / RFU A4GNT (11735810_at) / Fold change /veh A4GNT (11735810_at) / RFU PRB3 (11715151_x_at) / Fold change /veh PRB3 (11715151_x_at) / RFU TUBB4B (11761932_at) / Fold change /veh TUBB4B (11761932_at) / RFU CAPN14 (11732068_a_at) / Fold change /veh CAPN14 (11732068_a_at) / RFU TMCC2 (11721928_a_at) / Fold change /veh TMCC2 (11721928_a_at) / RFU IRGQ (11745062_a_at) / Fold change /veh IRGQ (11745062_a_at) / RFU FAM174B (11720279_a_at) / Fold change /veh FAM174B (11720279_a_at) / RFU TMPRSS4 (11748680_a_at) / Fold change /veh TMPRSS4 (11748680_a_at) / RFU FAM212B (11763350_a_at) / Fold change /veh FAM212B (11763350_a_at) / RFU PLEKHG5 (11743358_a_at) / Fold change /veh PLEKHG5 (11743358_a_at) / RFU ZSCAN30 (11745921_a_at) / Fold change /veh ZSCAN30 (11745921_a_at) / RFU CMKLR1 (11741424_a_at) / Fold change /veh CMKLR1 (11741424_a_at) / RFU LOC101060620 /// MAPK8IP1 (11723275_at) / Fold change /veh LOC101060620 /// MAPK8IP1 (11723275_at) / RFU SPTSSB (11747773_x_at) / Fold change /veh SPTSSB (11747773_x_at) / RFU PRSS12 (11739890_at) / Fold change /veh PRSS12 (11739890_at) / RFU BIN1 (11741810_x_at) / Fold change /veh BIN1 (11741810_x_at) / RFU WNT11 (11732464_a_at) / Fold change /veh WNT11 (11732464_a_at) / RFU C10orf10 (11716521_a_at) / Fold change /veh C10orf10 (11716521_a_at) / RFU C5orf56 (11738089_at) / Fold change /veh C5orf56 (11738089_at) / RFU CYB561 (11721691_x_at) / Fold change /veh CYB561 (11721691_x_at) / RFU ANKRD19P (11752326_a_at) / Fold change /veh ANKRD19P (11752326_a_at) / RFU OR2T12 /// OR2T33 /// OR2T8 (11738714_s_at) / Fold change /veh OR2T12 /// OR2T33 /// OR2T8 (11738714_s_at) / RFU VCAN (11748164_a_at) / Fold change /veh VCAN (11748164_a_at) / RFU JSRP1 (11732532_at) / Fold change /veh JSRP1 (11732532_at) / RFU KRTAP10-11 (11738290_x_at) / Fold change /veh KRTAP10-11 (11738290_x_at) / RFU MYO3A (11730013_a_at) / Fold change /veh MYO3A (11730013_a_at) / RFU EBF3 (11725865_a_at) / Fold change /veh EBF3 (11725865_a_at) / RFU CAMK2N1 (11719241_x_at) / Fold change /veh CAMK2N1 (11719241_x_at) / RFU C5orf56 (11738088_a_at) / Fold change /veh C5orf56 (11738088_a_at) / RFU OLFML3 (11715873_a_at) / Fold change /veh OLFML3 (11715873_a_at) / RFU LOC100653217 /// NTM (11731650_a_at) / Fold change /veh LOC100653217 /// NTM (11731650_a_at) / RFU MAPK11 (11762145_a_at) / Fold change /veh MAPK11 (11762145_a_at) / RFU FIZ1 (11724087_x_at) / Fold change /veh FIZ1 (11724087_x_at) / RFU OASL (11726364_x_at) / Fold change /veh OASL (11726364_x_at) / RFU SOX15 (11748057_x_at) / Fold change /veh SOX15 (11748057_x_at) / RFU CD79A (11719716_a_at) / Fold change /veh CD79A (11719716_a_at) / RFU HIST1H1D (11736915_at) / Fold change /veh HIST1H1D (11736915_at) / RFU CASKIN2 (11723855_a_at) / Fold change /veh CASKIN2 (11723855_a_at) / RFU LOC730098 (11760151_x_at) / Fold change /veh LOC730098 (11760151_x_at) / RFU OR4N2 (11742367_at) / Fold change /veh OR4N2 (11742367_at) / RFU PRRT2 (11749266_a_at) / Fold change /veh PRRT2 (11749266_a_at) / RFU SNX32 (11753110_a_at) / Fold change /veh SNX32 (11753110_a_at) / RFU CDHR5 (11726645_a_at) / Fold change /veh CDHR5 (11726645_a_at) / RFU RCAN1 (11760418_a_at) / Fold change /veh RCAN1 (11760418_a_at) / RFU FAM167A (11723789_a_at) / Fold change /veh FAM167A (11723789_a_at) / RFU FAM26E (11764081_at) / Fold change /veh FAM26E (11764081_at) / RFU ISYNA1 (11749810_s_at) / Fold change /veh ISYNA1 (11749810_s_at) / RFU ACY1 (11761880_at) / Fold change /veh ACY1 (11761880_at) / RFU 11764098_at / Fold change /veh 11764098_at / RFU SAMD14 (11745864_x_at) / Fold change /veh SAMD14 (11745864_x_at) / RFU NPB (11741838_a_at) / Fold change /veh NPB (11741838_a_at) / RFU TMPRSS6 (11731388_a_at) / Fold change /veh TMPRSS6 (11731388_a_at) / RFU KRTAP10-2 (11738614_at) / Fold change /veh KRTAP10-2 (11738614_at) / RFU ARHGAP8 /// PRR5-ARHGAP8 (11727945_x_at) / Fold change /veh ARHGAP8 /// PRR5-ARHGAP8 (11727945_x_at) / RFU KRTAP5-7 /// NADSYN1 (11734609_at) / Fold change /veh KRTAP5-7 /// NADSYN1 (11734609_at) / RFU RASL12 (11751679_a_at) / Fold change /veh RASL12 (11751679_a_at) / RFU CDKN2B (11736163_a_at) / Fold change /veh CDKN2B (11736163_a_at) / RFU PRF1 (11729649_at) / Fold change /veh PRF1 (11729649_at) / RFU, ZNF638 /// ZNF638-IT1 / Fold change vs veh, ZNF638 /// ZNF638-IT1 / RFU, PANK3 / Fold change vs veh, PANK3 / RFU, SH3YL1 / Fold change vs veh, SH3YL1 / RFU, ZEB2 / Fold change vs veh, ZEB2 / RFU, NRIP1 / Fold change vs veh, NRIP1 / RFU, PTTG1IP / Fold change vs veh, PTTG1IP / RFU, CAPN2 / Fold change vs veh, CAPN2 / RFU, MED14 / Fold change vs veh, MED14 / RFU, SNORA58 / Fold change vs veh, SNORA58 / RFU, C1orf63 / Fold change vs veh, C1orf63 / RFU, LRRFIP1 / Fold change vs veh, LRRFIP1 / RFU, NDUFAF7 / Fold change vs veh, NDUFAF7 / RFU, SLC12A2 / Fold change vs veh, SLC12A2 / RFU, IBTK / Fold change vs veh, IBTK / RFU, ESF1 / Fold change vs veh, ESF1 / Fold change vs veh, TMEM50B / RFU, TAOK1 / Fold change vs veh, TAOK1 / RFU, ACBD3 / Fold change vs veh, ACBD3 / RFU, TMA16 / Fold change vs veh, TMA16 / RFU, RWDD3 / Fold change vs veh, RWDD3 / RFU, BCAT1 / Fold change vs veh, BCAT1 / RFU, EDEM3 / Fold change vs veh, EDEM3 / RFU, TMEM33 / Fold change vs veh, TMEM33 / RFU, WDR75 / Fold change vs veh, WDR75 / RFU, AHCTF1 / Fold change vs veh, AHCTF1 / RFU, TFRC / Fold change vs veh, TFRC / RFU, ZDHHC17 / Fold change vs veh, ZDHHC17 / RFU, NOM1 / Fold change vs veh, NOM1 / RFU, ARL8B / Fold change vs veh, ARL8B / RFU, ZBTB11 / Fold change vs veh, ZBTB11 / RFU, TAMM41 / Fold change vs veh, TAMM41 / RFU, KIAA1704 /// LOC100996395 / Fold change vs veh, KIAA1704 /// LOC100996395 / RFU, ING1 / Fold change vs veh, ING1 / RFU, TRMT61B / Fold change vs veh, TRMT61B / RFU, FUBP3 / Fold change vs veh, FUBP3 / RFU, TP53 / Fold change vs veh, TP53 / RFU, TNKS2 / Fold change vs veh, TNKS2 / RFU, ZFP14 / Fold change vs veh, ZFP14 / RFU, ACTR2 / Fold change vs veh, ACTR2 / RFU, PPP3R1 / Fold change vs veh, PPP3R1 / RFU, PIK3R1 / Fold change vs veh, PIK3R1 / RFU, HNRNPA1 / Fold change vs veh, HNRNPA1 / RFU, RNF170 / Fold change vs veh, RNF170 / RFU, ZNF28 / Fold change vs veh, ZNF28 / RFU, RNGTT / Fold change vs veh, RNGTT / RFU, OGT / Fold change vs veh, OGT / RFU, BRD1 / Fold change vs veh, BRD1 / RFU, MARS / Fold change vs veh, MARS / RFU, ZNF655 / Fold change vs veh, ZNF655 / RFU, FAHD1 / Fold change vs veh, FAHD1 / RFU, BDP1 / Fold change vs veh, BDP1 / RFU, LRRCC1 / Fold change vs veh, LRRCC1 / RFU, ARID1A / Fold change vs veh, ARID1A / RFU, ZNF146 / Fold change vs veh, ZNF146 / RFU, ZNF330 / Fold change vs veh, ZNF330 / RFU, GPN3 / Fold change vs veh, GPN3 / RFU, C9orf123 / Fold change vs veh, C9orf123 / RFU, N4BP2L2 / Fold change vs veh, N4BP2L2 / RFU, ARFIP1 / Fold change vs veh, ARFIP1 / RFU, FAM179B / Fold change vs veh, FAM179B / RFU, BCL10 / Fold change vs veh, BCL10 / RFU, UHRF1BP1L / Fold change vs veh, UHRF1BP1L / RFU, BET1 / Fold change vs veh, BET1 / RFU, CNOT2 / Fold change vs veh, CNOT2 / RFU, ZNF268 / Fold change vs veh, ZNF268 / Fold change vs veh, ZNF507 / RFU, DGCR2 / Fold change vs veh, DGCR2 / RFU, WDSUB1 / Fold change vs veh, WDSUB1 / Fold change vs veh, HSP90B1 /// MIR3652 / RFU, ADSS / Fold change vs veh, ADSS / RFU, GK / Fold change vs veh, GK / RFU, ZNF148 / Fold change vs veh, ZNF148 / RFU, TAF9 / Fold change vs veh, TAF9 / RFU, SLC1A5 / Fold change vs veh, SLC1A5 / RFU, SLMO2 / Fold change vs veh, SLMO2 / RFU, ABCC4 / Fold change vs veh, ABCC4 / RFU, LOC101060439 /// RAP1B / Fold change vs veh, LOC101060439 /// RAP1B / RFU, RFX7 / Fold change vs veh, RFX7 / RFU, GTPBP10 / Fold change vs veh, GTPBP10 / RFU, CNEP1R1 / Fold change vs veh, CNEP1R1 / RFU, BIVM-ERCC5 /// ERCC5 / Fold change vs veh, BIVM-ERCC5 /// ERCC5 / RFU, ILF3 / Fold change vs veh, ILF3 / RFU 11762660_at / Fold change /veh 11762660_at / RFU VCAN (11757783_s_at) / Fold change /veh VCAN (11757783_s_at) / RFU DDX43 (11728927_at) / Fold change /veh DDX43 (11728927_at) / RFU KRT8 (11758188_x_at) / Fold change /veh KRT8 (11758188_x_at) / RFU NKD1 (11759106_at) / Fold change /veh NKD1 (11759106_at) / RFU SRD5A1 (11742802_a_at) / Fold change /veh SRD5A1 (11742802_a_at) / RFU TPSAB1 /// TPSB2 (11721975_s_at) / Fold change /veh TPSAB1 /// TPSB2 (11721975_s_at) / RFU GSTM3 (11746129_a_at) / Fold change /veh GSTM3 (11746129_a_at) / RFU IL23R (11737362_x_at) / Fold change /veh IL23R (11737362_x_at) / RFU TMEM51 (11727254_a_at) / Fold change /veh TMEM51 (11727254_a_at) / RFU PIWIL2 (11732686_x_at) / Fold change /veh PIWIL2 (11732686_x_at) / RFU ORM1 (11744905_x_at) / Fold change /veh ORM1 (11744905_x_at) / RFU CCDC152 (11743942_at) / Fold change /veh CCDC152 (11743942_at) / RFU ECM1 (11717891_a_at) / Fold change /veh ECM1 (11717891_a_at) / RFU IL23R (11748794_a_at) / Fold change /veh IL23R (11748794_a_at) / RFU TNFAIP8L3 (11732012_x_at) / Fold change /veh TNFAIP8L3 (11732012_x_at) / RFU MBOAT4 (11741988_at) / Fold change /veh MBOAT4 (11741988_at) / RFU 11764193_at / Fold change /veh 11764193_at / RFU TMEM53 (11763286_at) / Fold change /veh TMEM53 (11763286_at) / RFU MAGEB2 (11727129_at) / Fold change /veh MAGEB2 (11727129_at) / RFU TMEM200A (11744735_a_at) / Fold change /veh TMEM200A (11744735_a_at) / RFU CCDC152 (11751479_a_at) / Fold change /veh CCDC152 (11751479_a_at) / RFU FAM211A (11726209_a_at) / Fold change /veh FAM211A (11726209_a_at) / RFU RGS16 (11746705_a_at) / Fold change /veh RGS16 (11746705_a_at) / RFU VCAN (11755009_s_at) / Fold change /veh VCAN (11755009_s_at) / RFU RHOB (11743442_s_at) / Fold change /veh RHOB (11743442_s_at) / RFU RGS16 (11720943_a_at) / Fold change /veh RGS16 (11720943_a_at) / RFU RGS16 (11720944_at) / Fold change /veh RGS16 (11720944_at) / RFU, VPS4B / Fold change vs veh, VPS4B / RFU, CREB1 / Fold change vs veh, CREB1 / RFU, DNAJC13 / Fold change vs veh, DNAJC13 / RFU, GNAQ / Fold change vs veh, GNAQ / RFU, CDK5R1 / Fold change vs veh, CDK5R1 / RFU, ZRANB3 / Fold change vs veh, ZRANB3 / RFU, CUL4A / Fold change vs veh, CUL4A / RFU, CCNY / Fold change vs veh, CCNY / RFU, UFL1 / Fold change vs veh, UFL1 / RFU, COG3 / Fold change vs veh, COG3 / RFU, DIAPH2 / Fold change vs veh, DIAPH2 / RFU, SKA2 / Fold change vs veh, SKA2 / RFU, AFF3 / Fold change vs veh, AFF3 / RFU, LMF1 / Fold change vs veh, LMF1 / RFU, IPO11 / Fold change vs veh, IPO11 / RFU, DFFB / Fold change vs veh, DFFB / RFU, FOXP1 / Fold change vs veh, FOXP1 / RFU, CARD8 / Fold change vs veh, CARD8 / RFU, STRN3 / Fold change vs veh, STRN3 / RFU, ADK / Fold change vs veh, ADK / RFU, RASSF2 / Fold change vs veh, RASSF2 / RFU, WIPF1 / Fold change vs veh, WIPF1 / RFU, LARP1B / Fold change vs veh, LARP1B / RFU, RASA1 / Fold change vs veh, RASA1 / RFU, RB1 / Fold change vs veh, RB1 / RFU, PPFIA1 / Fold change vs veh, PPFIA1 / RFU, MAT2A / Fold change vs veh, MAT2A / RFU, CCT5 / Fold change vs veh, CCT5 / RFU, WDR92 / Fold change vs veh, WDR92 / RFU, CUX1 / Fold change vs veh, CUX1 / RFU, TTC7A / Fold change vs veh, TTC7A / RFU, TMEM135 / Fold change vs veh, TMEM135 / RFU, DEPTOR / Fold change vs veh, DEPTOR / RFU, CPM / Fold change vs veh, CPM / RFU, DNAJB6 / Fold change vs veh, DNAJB6 / RFU, CACNA2D3 / Fold change vs veh, CACNA2D3 / RFU, DTX4 / Fold change vs veh, DTX4 / RFU, TFCP2 / Fold change vs veh, TFCP2 / RFU, GMCL1 /// GMCL1P1 / Fold change vs veh, GMCL1 /// GMCL1P1 / RFU, AEBP2 / Fold change vs veh, AEBP2 / RFU, SNHG1 /// SNORD22 /// SNORD25 /// SNORD26 /// SNORD27 /// SNORD28 /// SNORD29 /// SNORD31 / Fold change vs veh, SNHG1 /// SNORD22 /// SNORD25 /// SNORD26 /// SNORD27 /// SNORD28 /// SNORD29 /// SNORD31 / Fold change (Aza/veh), C12orf56 (ProbeSet 11735607_a_at) / Fold change (ACY-1035/veh), C12orf56 (ProbeSet 11735607_a_at) / Fold change (Aza/veh), FGFR1OP (ProbeSet 11751329_s_at) / Fold change (ACY-1035/veh), FGFR1OP (ProbeSet 11751329_s_at) / Fold change (Aza/veh), VPS36 (ProbeSet 11739960_a_at) / Fold change (ACY-1035/veh), VPS36 (ProbeSet 11739960_a_at) / RFU SYPL1 (11715823_x_at) / Fold change /veh SYPL1 (11715823_x_at) / RFU IGFBP7 (11715501_s_at) / Fold change /veh IGFBP7 (11715501_s_at) / RFU REEP3 (11722064_at) / Fold change /veh REEP3 (11722064_at) / RFU IGLL1 (11728026_x_at) / Fold change /veh IGLL1 (11728026_x_at): dose or concentration left out as unconfirmed
Conditions: ProbeSet 11757268_x_at; LIST B

Compound: Nc1ccc(-c2cccs2)cc1NC(=O)c1ccc2c(c1)cc(C1CC1)n2CCN1CCOCC1 [ACY-1035]
- RFU, HNRNPA1: 4786.54 RFU
